Reference: patent publication US20260042764A1, “COMPOSITIONS AND METHODS FOR INHIBITION OF KRAS” (TheRas, Inc., priority 2022, published 2026)
pIC50: −log10 of the molar value.

Tests used:
SW1900 cells (KRAS G12D) [1] = test: Cell-based pERK HTRF assay in SW1900 cells (Biological Example 5); settings: Homo sapiens, SW1990, SW1990 cells (text: SW1900, KRAS G12D)
Procedure, shortened: (§1)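 Cells seeded at 2.5×10^4/well in 10% FBS medium overnight, then treated 2 h at 37° C with a 9-point, three-fold compound dilution series (0.25% DMSO final). Lysates were read by HTRF for pERK1/2 (Thr202/Tyr204) after 24 h at 4° C; EC50 came from a four-parameter fit of 665/620 nm ratios.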

HPAC cells (KRAS G12D) [2] = test: Cell-based pERK HTRF assay in HPAC cells (Biological Example 5); settings: Homo sapiens, HPAC
Procedure, shortened: as §1

[3] = system: Capan-2 cells (KRAS G12V); test: Cell-based pERK HTRF assay in Capan-2 cells (Biological Example 5); settings: Homo sapiens, Capan-2, Capan-2 (KRAS G12V) cells
Procedure, shortened: as §1

H358 cells (KRAS G12C) [4] = test: Cell-based pERK HTRF assay in H358 cells (Biological Example 5); settings: Homo sapiens, NCI-H358, H358 (KRAS G12C) cells
Procedure, shortened: as §1

HCT116 cells (KRAS G13D) = test: Cell-based pERK HTRF assay in HCT116 cells (Biological Example 5); settings: Homo sapiens, HCT-116
Procedure, shortened: as §1

KP-2 cells (KRAS G12R) = test: Cell-based pERK HTRF assay in KP-2 cells (Biological Example 5); settings: KP-2 (KRAS G12R) cells
Description: Biological Example 5: Cell-based PERK HTRF assay in AsPC-1, SW1900, HPAC, Capan-2, RKN, H358, HCT116, KP-2, H1573, A549, MKN1, and HT1080 cells
The inhibition of ERK phosphorylation, as measured using the HTRF Advanced Phospho-ERK 1/2 (Thr202/Tyr204) Detection Assay kit (Perkin Elmer), was used to determine the effectiveness of test compounds in disrupting KRAS-driven protein/effector signaling in cells.
On day 1, cells were seeded into 96-well plates at 2.5×10^4 cells/well in 100 μL of complete growth media supplemented with 10% fetal bovine serum (FBS) and incubated at 37° C., in the presence of 5% CO2.
On day 2, cells were treated with compounds diluted in DMSO at 0.25% final DMSO concentration. Compounds were dosed in a 9-point concentration curve with three-fold dilution between concentrations. Cells were incubated in the presence of compound for two hours at 37° C. Following this treatment period, cells were harvested by aspirating the media, adding 40 μL of kit-supplied 1x lysis buffer per well, and shaking for 30 minutes at 250 rpm at room temperature.
Following cell lysis, samples were homogenized by pipetting up and down twenty times and 16 μL of cell lysate per well was transferred from the 96-well cell culture plate to two wells of a 384-well detection plate. A complete detection buffer was prepared by diluting D2 and Eu Cryptate antibodies 1:20 in kit-provided detection solution, 4 μL of complete detection buffer was then added to each well with lysate. Plates were incubated with gentle rocking for 24 hours at 4° C.
Following this incubation period, plates were centrifuged at 500×g for one minute and analyzed on a CLARIOstar plate reader. Data was imported into Microsoft Excel and the signal from the 665 nm channel was divided by the signal from the 620 nm channel. % pERK was calculated as: […]
Data was imported to the Prism software package (Graphpad) and EC50 values were calculated using the log (inhibitor) vs, response—variable slopc (Four parameters) model.

H1573 cells (KRAS G12A) = test: Cell-based pERK HTRF assay in H1573 cells (Biological Example 5); settings: Homo sapiens, NCI-H1573
Procedure, shortened: as §1

[5] = system: MKN1 cells (KRAS amplification); test: Cell-based pERK HTRF assay in MKN1 cells (Biological Example 5); settings: Homo sapiens, MKN-1, MKN cells (MKN1, KRAS amplification)
Procedure, shortened: as §1

HT1080 cells (NRAS) [6] = test: Cell-based pERK HTRF assay in HT1080 cells (Biological Example 5); settings: Homo sapiens, HT-1080
Procedure, shortened: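 Overnight-plated cells (2.5×10^4/well, 10% FBS); 2 h compound, 9-pt 3-fold curve, 0.25% DMSO, 37° C; lysis 30 min RT; Eu cryptate/D2 anti-pERK (T202/Y204) detection 24 h, 4° C; 665/620 ratio → % pERK → 4-PL EC50.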

AsPC-1 cells (KRAS G12D) = test: 3D Cell viability assay in AsPC-1 cells (Biological Example 6); assay type: cell-based; settings: Homo sapiens, ASPC1; AsPC-1 (KRAS G12D) spheroids, 72 hours
Procedure, shortened: (§2)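 Tumour spheroids, grown 48 h from 1000 seeded cells in ultra-low attachment wells, receive compound at nine three-fold-spaced concentrations (final DMSO 0.25%) for 72 h at 37 °C, 5% CO2. Viability is measured by luminescence after CTG 3D lysis.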

SW1900 cells (KRAS G12D) [7] = test: 3D Cell viability assay in SW1900 cells (Biological Example 6); assay type: cell-based; settings: Homo sapiens; SW1990 (text: SW1900, KRAS G12D) spheroids, 72 hours
Procedure, shortened: as §2

HPAC cells (KRAS G12D) [8] = test: 3D Cell viability assay in HPAC cells (Biological Example 6); assay type: cell-based; settings: Homo sapiens, HPAC, 72 h, HPAC (KRAS G12D) spheroids
Procedure, shortened: as §2

[9] = system: Capan-2 cells (KRAS G12V); test: 3D Cell viability assay in Capan-2 cells (Biological Example 6); assay type: cell-based; settings: Homo sapiens; Capan-2 (KRAS G12V) spheroids, 72 hours
Procedure, shortened: as §2

H358 cells (KRAS G12C) [10] = test: 3D Cell viability assay in H358 cells (Biological Example 6); assay type: cell-based; settings: Homo sapiens, NCI-H358; H358 (KRAS G12C) spheroids, 72 hours
Procedure, shortened: as §2

[11] = system: MKN1 cells (KRAS amplification); test: 3D Cell viability assay in MKN1 cells (Biological Example 6); assay type: cell-based; settings: Homo sapiens, MKN-1; MKN (MKN1, KRAS amplification) spheroids, 72 hours
Procedure, shortened: as §2

HT1080 cells (NRAS) [12] = test: 3D Cell viability assay in HT1080 cells (Biological Example 6); assay type: cell-based; settings: Homo sapiens, HT-1080; HT1080 (NRAS) spheroids, 72 hours
Procedure, shortened: as §2

RKN cells (KRAS G12V) [13] = test: Cell-based pERK HTRF assay in RKN cells (Biological Example 5)
Procedure, shortened: as §1

RKN cells (KRAS G12V) [14] = test: 3D Cell viability assay in RKN cells (Biological Example 6); assay type: cell-based; settings: RKN (KRAS G12V) spheroids, 72 hours
Procedure, shortened: as §2

Measured: pIC50

CCC(=O)N1CC[C@@H](N(CC)c2nc(OC[C@@]34CCCN3C[C@H](F)C4)nc3c(F)c(-c4ccc(F)c5sc(N)c(C#N)c45)c(C(F)(F)F)cc23)[C@H]1C (atropisomer, axis not shown) [Compound 523]
< 6.00: HT1080 cells (NRAS) [6] | HPAC cells (KRAS G12D) [8] | HT1080 cells (NRAS) [12]
6.00 to 7.00: AsPC-1 cells (KRAS G12D)
not listed: RKN cells (KRAS G12V) [13] | RKN cells (KRAS G12V) [14]
≥ 7.00: all other assays above

CCN(c1nc(OC[C@@]23CCCN2C[C@H](F)C3)nc2c(F)c(-c3ccc(F)c4sc(N)c(C#N)c34)c(C(F)(F)F)cc12)[C@@H]1CCN(C(=O)C2CC2)[C@@H]1C (atropisomer, axis not shown) [Compound 524]
6.00 to 7.00: AsPC-1 cells (KRAS G12D)
< 6.00: HT1080 cells (NRAS) [6] | HPAC cells (KRAS G12D) [8] | HT1080 cells (NRAS) [12]
not listed: RKN cells (KRAS G12V) [13] | RKN cells (KRAS G12V) [14]
≥ 7.00: all other assays above

CCN(c1nc(OC[C@@]23CCCN2C[C@H](F)C3)nc2c(F)c(-c3ccc(F)c4sc(N)c(C#N)c34)c(C(F)(F)F)cc12)[C@H]1CCN(C(=O)N(C)C)C1 (atropisomer, axis not shown) [Compound 540, (3S)-3-[[7-(2-amino-3-cyano-7-fluoro-benzothiophen-4-yl)-8-fluoro-2-[[(2R,8S)-2-fluoro-1,2,3,5,6,7-hexahydropyrrolizin-8-yl]methoxy]-6-(trifluoromethyl)quinazolin-4-yl]-ethyl-amino]-N,N-dimethyl-pyrrolidine-1-carboxamide]
< 6.00: HT1080 cells (NRAS) [6] | HT1080 cells (NRAS) [12]
6.00 to 7.00: AsPC-1 cells (KRAS G12D) | HPAC cells (KRAS G12D) [8]
not listed: RKN cells (KRAS G12V) [13] | RKN cells (KRAS G12V) [14]
≥ 7.00: all other assays above

CCN(c1nc(OC[C@@]23CCCN2C[C@H](F)C3)nc2c(F)c(-c3ccc(F)c4sc(N)c(C#N)c34)c(C(F)(F)F)cc12)[C@H]1CCN(C(=O)OC)C1 (atropisomer, axis not shown) [Compound 541, methyl(3S)-3-[[7-(2-amino-3-cyano-7-fluoro-benzothiophen-4-yl)-8-fluoro-2-[[(2R,8S)-2-fluoro-1,2,3,5,6,7-hexahydropyrrolizin-8-yl]methoxy]-6-(trifluoromethyl)quinazolin-4-yl]-ethyl-amino]pyrrolidine-1-carboxylate]
< 6.00: HT1080 cells (NRAS) [6] | HT1080 cells (NRAS) [12]
6.00 to 7.00: KP-2 cells (KRAS G12R)
≥ 7.00: all other assays above

CCN(c1nc(OC[C@@]23CCCN2C[C@H](F)C3)nc2c(F)c(-c3ccc(F)c4sc(N)c(C#N)c34)c(C(F)(F)F)cc12)[C@H]1CCN(C(=O)C(C)C)C1 (single isomer, unassigned) [Compound 469]
6.00 to 7.00: HPAC cells (KRAS G12D) [2] | KP-2 cells (KRAS G12R)
< 6.00: HT1080 cells (NRAS) [6] | HT1080 cells (NRAS) [12]
≥ 7.00: all other assays above

Cc1c(C(=O)N(C)C)nn2c1CN(c1nc(OC[C@@]34CCCN3C[C@H](F)C4)nc3c(F)c(-c4ccc(F)c5sc(N)c(C#N)c45)c(C(F)(F)F)cc13)CC2 [Compound 501]
6.00 to 7.00: HCT116 cells (KRAS G13D) | KP-2 cells (KRAS G12R) | H1573 cells (KRAS G12A) | HPAC cells (KRAS G12D) [8]
not listed: HT1080 cells (NRAS) [6] | HT1080 cells (NRAS) [12]
≥ 7.00: all other assays above
